In patent US8455534B2, “Estrogen receptor modulators and uses thereof” (Aragon Pharmaceuticals, Inc., priority 2010, dated 2013):

Columns and labels:
[1] = test system: MCF-7 cells; experiment: Breast Cancer Cell Viability Assay (MCF-7, CellTiter-Glo); assay type: cell-based; conditions: 5 days' compound exposure; for IC50: Homo sapiens, MCF7, 120 h
Method in brief: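 Eleven-point semilog compound series, final 0.3-0.000003 μM, added to overnight-adhered MCF-7 cells (320/well; RPMI, 10% FBS, 20 mM HEPES) for 5 days. Viability read by CellTiter-Glo luminescence, background from medium without cells subtracted, expressed relative to untreated cells.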

[2] = target: T1, ER-α (Homo sapiens, UniProt P03372); experiment: Breast Cancer Cell ER-α In Cell Western Assay (SP1); assay type: cell-based; conditions: MCF-7 cells, SP1 antibody, 4 or 24 hr post compound addition; for Emax: MCF7, read-out: ER-α In Cell Western Assay (SP1) Max Response; for DC50: read-out: ER-α In Cell Western Assay (SP1) IC50
T1 sequence (P03372 1-595): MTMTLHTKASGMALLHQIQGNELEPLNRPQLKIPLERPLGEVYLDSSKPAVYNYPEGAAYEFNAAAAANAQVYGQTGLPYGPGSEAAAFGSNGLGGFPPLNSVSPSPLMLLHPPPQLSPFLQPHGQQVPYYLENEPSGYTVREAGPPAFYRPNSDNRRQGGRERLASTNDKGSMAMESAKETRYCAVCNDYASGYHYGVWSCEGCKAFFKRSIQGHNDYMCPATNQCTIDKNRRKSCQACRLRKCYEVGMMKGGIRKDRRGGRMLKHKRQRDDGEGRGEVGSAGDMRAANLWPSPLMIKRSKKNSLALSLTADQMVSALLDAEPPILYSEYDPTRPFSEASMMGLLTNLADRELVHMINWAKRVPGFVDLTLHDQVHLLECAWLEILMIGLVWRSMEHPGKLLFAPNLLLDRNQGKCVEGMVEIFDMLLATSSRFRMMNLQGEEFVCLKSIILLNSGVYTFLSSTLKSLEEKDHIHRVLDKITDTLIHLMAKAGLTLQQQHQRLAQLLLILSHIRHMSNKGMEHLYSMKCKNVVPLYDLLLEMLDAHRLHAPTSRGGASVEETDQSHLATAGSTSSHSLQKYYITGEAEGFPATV
Method in brief: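 ER-α protein levels measured by in-cell western with SP1 antibody, ratioed to DRAQ5 DNA signal and given as percent of untreated controls. Compounds added at 0.3–0.000003 μM final (eleven semilog points) to adherent MCF-7 cells in stripped serum; exposure 4 or 24 h before fixation.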

IC50 [1]	Emax [2]	DC50 [2]	Structure (SMILES)	MCF7 Viability Assay Max Response [1]
≤ 100 nM	≥ 40%	≤ 100 nM	C/C(=C(/c1ccc(/C=C/C(=O)O)cc1)c1ccc2[nH]ncc2c1)c1ccccc1 [Compound 42, (E)-3-(4-((E)-1-(1H-Indazol-5-yl)-2-phenylprop-1-en-1-yl)phenyl)acrylic acid]	++ (++ = a single % value ≧ 40%)
≤ 100 nM	≥ 40%	≤ 100 nM	CC/C(=C(/c1ccc(/C=C/C(=O)O)cc1)c1ccc2[nH]ncc2c1)c1ccc(F)cc1C(F)(F)F [Compound 116, (E)-3-(4-((E)-2-(4-Fluoro-2-(trifluoromethyl)phenyl)-1-(1H-indazol-5-yl)but-1-en-1-yl)phenyl)acrylic acid]	++ (++ = a single % value ≧ 40%)
≤ 100 nM	≥ 40%	≤ 100 nM	CC/C(=C(/c1ccc(/C=C/C(=O)O)cc1)c1ccc2[nH]ncc2c1)c1ccc(Cl)cc1Cl [Compound 113, (E)-3-(4-((E)-2-(2,4-Dichlorophenyl)-1-(1H-indazol-5-yl)but-1-en-1-yl)phenyl)acrylic acid]	++ (++ = a single % value ≧ 40%)
≤ 100 nM	≥ 40%	≤ 100 nM	CC/C(=C(/c1ccc(/C=C/C(=O)O)cc1)c1ccc2[nH]ncc2c1)c1cccc(F)c1F [Compound 31, (E)-3-(4-((E)-2-(2,3-Difluorophenyl)-1-(1H-indazol-5-yl)but-1-en-1-yl)phenyl)acrylic acid]	++ (++ = a single % value ≧ 40%)
≤ 100 nM	≥ 40%	≤ 100 nM	CC/C(=C(/c1ccc(/C=C/C(=O)O)cc1)c1ccc2[nH]ncc2c1)c1cccc(OC)c1Cl [Compound 135, (E)-3-(4-((E)-2-(2-Chloro-3-methoxyphenyl)-1-(1H-indazol-5-yl)but-1-en-1-yl)phenyl)acrylic acid]	++ (++ = a single % value ≧ 40%)
≤ 100 nM	≥ 40%	≤ 100 nM	CC/C(=C(/c1ccc(/C=C/C(=O)O)cc1)c1cc(F)c2[nH]ncc2c1)c1ccc(Cl)cc1Cl [Compound 134, (E)-3-(4-((E)-2-(2,4-Dichlorophenyl)-1-(7-fluoro-1H-indazol-5-yl)but-1-en-1-yl)phenyl)acrylic acid]	++ (++ = a single % value ≧ 40%)
≤ 100 nM	≥ 40%	≤ 100 nM	O=C(O)/C=C/c1ccc(/C(=C(\c2ccccc2)C2CC2)c2ccc3[nH]ncc3c2)cc1 [Compound 24, (E)-3-(4-((E)-2-Cyclopropyl-1-(1H-indazol-5-yl)-2-phenylvinyl)phenyl)acrylic acid]	++ (++ = a single % value ≧ 40%)
≤ 100 nM	≥ 40%	≤ 100 nM	CC/C(=C(/c1ccc(/C=C/C(=O)O)cc1)c1cc(C)c2[nH]ncc2c1)c1ccccc1 [Compound 37, (E)-3-(4-((E)-1-(7-Methyl-1H-indazol-5-yl)-2-phenylbut-1-en-1-yl)phenyl)acrylic acid]	++ (++ = a single % value ≧ 40%)
> 100 nM	≥ 40%	≤ 100 nM	CC/C(=C(/c1ccc(/C=C/C(=O)O)cc1)c1ccc2[nH]ncc2c1)c1ccccc1O [Compound 94, (E)-3-(4-((E)-2-(2-Hydroxyphenyl)-1-(1H-indazol-5-yl)but-1-en-1-yl)phenyl)acrylic acid]	++ (++ = a single % value ≧ 40%)
> 100 nM	≥ 40%	≤ 100 nM	CC/C(=C(/c1ccc(/C=C(\F)C(=O)O)cc1)c1ccc2[nH]ncc2c1)c1ccccc1 [Compound 103, (Z)-3-(4-((E)-1-(1H-Indazol-5-yl)-2-phenylbut-1-en-1-yl)phenyl)-2-fluoroacrylic acid]	++ (++ = a single % value ≧ 40%)
≤ 100 nM	≥ 40%	–	CC/C(=C(/c1ccc(/C=C/C(=O)O)cc1)c1ccc2[nH]ncc2c1)c1ccccc1Cl [Compound 14, (E)-3-(4-((E)-2-(2-chlorophenyl)-1-(1H-indazol-5-yl)but-1-en-1-yl)phenyl)acrylic acid]	++ (++ = a single % value ≧ 40%)

Further lines, the molecule ahead of its results:

Structure (SMILES)	IC50 [1]	Emax [2]	DC50 [2]	MCF7 Viability Assay Max Response [1]
CC/C(=C(/c1ccc(/C=C/C(=O)O)cc1)c1ccc2[nH]ncc2c1)c1ccc(C)cc1 [Compound 11, (E)-3-(4-((E)-1-(1H-Indazol-5-yl)-2-(p-tolyl)but-1-en-1-yl)phenyl)acrylic acid]	≤ 100 nM	≥ 40%	≤ 100 nM	++ (++ = a single % value ≧ 40%)
CC/C(=C(/c1ccc(/C=C/C(=O)O)cc1)c1ccc2[nH]ncc2c1)c1ccc(CO)cc1 [Compound 7, (E)-3-(4-((E)-2-(4-(Hydroxymethyl)phenyl)-1-(1H-indazol-5-yl)but-1-en-1-yl)phenyl)acrylic acid]	≤ 100 nM	≥ 40%	≤ 100 nM	++ (++ = a single % value ≧ 40%)
O=C(O)/C=C/c1ccc(/C(=C(\c2ccccc2)C2CCCCC2)c2ccc3[nH]ncc3c2)cc1 [Compound 54, (E)-3-(4-((E)-2-Cyclohexyl-1-(1H-indazol-5-yl)-2-phenylvinyl)phenyl)acrylic acid]	≤ 100 nM	≥ 40%	≤ 100 nM	++ (++ = a single % value ≧ 40%)
CC/C(=C(/c1ccc(/C=C/C(=O)O)cc1)c1ccc2[nH]ncc2c1)c1cc(S(C)(=O)=O)ccc1C [Compound 127, (E)-3-(4-((E)-1-(1H-Indazol-5-yl)-2-(2-methyl-5-(methylsulfonyl)phenyl)but-1-en-1-yl)phenyl)acrylic acid]	> 100 nM	< 40%	> 100 nM	+ (+ = a single % value < 40%)
CC/C(=C(/c1ccc(/C=C/C(=O)O)cc1)c1ccc2[nH]ncc2c1)c1ccccc1C [Compound 9, (E)-3-(4-((E)-1-(1H-Indazol-5-yl)-2-(o-tolyl)but-1-en-1-yl)phenyl)acrylic acid]	≤ 100 nM	≥ 40%	–	++ (++ = a single % value ≧ 40%)
CC/C(=C(/c1ccc(/C=C/C(=O)O)cc1)c1ccc2[nH]ncc2c1)c1ccc(C(F)(F)F)cc1C#N [Compound 139, (E)-3-(4-((E)-2-(2-Cyano-4-(trifluoromethyl)phenyl)-1-(1H-indazol-5-yl)but-1-en-1-yl)phenyl)acrylic acid]	≤ 100 nM	≥ 40%	≤ 100 nM	++ (++ = a single % value ≧ 40%)
CC/C(=C(/c1ccc(/C=C/C(=O)O)cc1)c1ccc2[nH]ncc2c1Cl)c1ccccc1 [Compound 52, (E)-3-(4-((E)-1-(4-Chloro-1H-indazol-5-yl)-2-phenylbut-1-en-1-yl)phenyl)acrylic acid]	≤ 100 nM	≥ 40%	≤ 100 nM	++ (++ = a single % value ≧ 40%)
CC/C(=C(/c1ccc(/C=C/C(=O)O)cc1)c1cc(Cl)c2[nH]ncc2c1)c1ccccc1 [Compound 35, (E)-3-(4-((E)-1-(7-Chloro-1H-indazol-5-yl)-2-phenylbut-1-en-1-yl)phenyl)acrylic acid]	≤ 100 nM	≥ 40%	≤ 100 nM	++ (++ = a single % value ≧ 40%)
CC/C(=C(/c1ccc(/C=C/C(=O)O)cc1)c1ccc2[nH]ncc2c1C)c1ccccc1 [Compound 36, (E)-3-(4-((E)-1-(4-Methyl-1H-indazol-5-yl)-2-phenylbut-1-en-1-yl)phenyl)acrylic acid]	≤ 100 nM	≥ 40%	≤ 100 nM	++ (++ = a single % value ≧ 40%)
[2H]C([2H])([2H])C/C(=C(/c1ccc(/C=C/C(=O)O)cc1)c1ccc2[nH]ncc2c1)c1ccccc1 [Compound 28, (E)-3-(4-((E)-4,4,4-Trideutero-1-(1H-indazol-5-yl)-2-phenylbut-1-en-1-yl)phenyl)acrylic acid]	≤ 100 nM	≥ 40%	–	++ (++ = a single % value ≧ 40%)
CC/C(=C(/c1ccc(/C=C/C(=O)O)cc1)c1ccc2[nH]ncc2c1)c1ccccc1 [Compound 2, (E)-3-(4-((E)-1-(1H-Indazol-5-yl)-2-phenylbut-1-en-1-yl)phenyl)acrylic acid]	≤ 100 nM	≥ 40%	–	++ (++ = a single % value ≧ 40%)
